This is an account of results in patent publication US6498154B1, “Cyclic regimens using quinazolinone and benzoxazine derivatives” (Wyeth, priority 1999, dated 2002).

Where “and” joins values, the source holds several entries; their conditions need not be identical. Equal entries are not always repeated.

Tested on in the first data set: not given
Assay: not given
Conditions: not given
In the case of `CC1(C)CC(=O)Nc2ccc(-c3cccc(Cl)c3)cc21` [6-(3-Chlorophenyl)-4,4-dimethyl-3,4-dihydro-1H-quinolin-2-one], the melting point (in general, the temperature of the solid-liquid transition) fell in the range of 211 to 215 °C.
As for `CC1OC(C)(C)Nc2ccc(-c3cccc([N+](=O)[O-])c3)cc21` (stereo not shown) [Compound 3, 6-(3-Nitro-phenyl)-2,2,4,-trimethyl-1,4dihydro-2H-benzo[d][1,3]oxazine], the melting point fell in the range of 188 to 189 °C.
`CC1Nc2ccc(-c3ccc(C#N)s3)cc2C(C)(C)O1` (stereo not shown) [Example 13, 5-(2,4,4-Trimethyl-1,4-dihydro-2H-3,1-benzoxazin-6-yl)thiophene-2-carbonitrile] yielded a melting point of 172 to 173 °C.
For `CC1Nc2ccc(-c3cc(F)cc(C#N)c3)cc2C(C)(C)O1` (stereo not shown) [Example 14, 3-Fluoro-5-(2,4,4-trimethyl-1,4-dihydro-2H-3,1-benzoxazin-6-yl)benzonitrile], the melting point was 163 to 164 °C.
`CC1Nc2ccc(-c3csc(C#N)c3)cc2C(C)(C)O1` (stereo not shown) [Example 15, 4-(2,4,4-Trimethyl-1,4-dihydro-2H-3,1-benzoxazin-6-yl)thiophene-2-carbonitrile] showed a melting point of 175 to 176 °C.
In the case of `Cc1cc(C#N)sc1-c1ccc2c(c1)C(C)(C)OC(C)N2` (stereo not shown) [Example 16, 4-Methyl-5(2,4,4-trimethyl-1,4-dihydro-2H-3,1-benzoxazin-6-yl)thiophene-2-carbonitrile], the melting point lay within 145 to 146 °C.
For the compound `C[C@@H]1Nc2ccc(-c3cc(F)cc(C#N)c3)cc2[C@](C)(c2ccccc2)O1` [Example 17, 3-[(2R,4S)-2,4-Dimethyl-4-phenyl-1,4-dihydro-2H-3,1-benzoxazin-6-yl]-5-fluorobenzonitrile], the melting point was 128 to 129 °C.
In turn, `CC1OC(C)(C)c2cc(-c3ccc(C#N)n3C(=O)OC(C)(C)C)ccc2N1C(=O)OCC1c2ccccc2-c2ccccc21` (stereo not shown) [Example 19, 9H-Fluoren-9-ylmethyl-6-[1-(tert-butoxycarbonyl)-5-cyano-1H-pyrrol-2-yl]-2,4,4-trimethyl-2H-3,1-benzoxazine-1(4H)-carboxylate] returned a melting point of 135 to 136 °C.
On the same count and under the same terms, the same measure for `CC1Nc2ccc(-c3ccc(C#N)[nH]3)cc2C(C)(C)O1` (stereo not shown) [Example 20, 5-(2,4,4-Trimethyl-1,4-dihydro-2H-3,1-benzoxazin-6-yl)1H-pyrrole-2-carbonitrile]: 201 to 202 °C; for `CC1Nc2ccc(-c3csc(C#N)c3)cc2C2(CCCCC2)O1` (stereo not shown) [Example 26, 4-(2-Methylspiro[2H-3,1-benzoxazine-4,1′-cyclohexane]-6-yl)2-thiophenecarbonitrile]: 111 to 112 °C.
On the same count and under the same terms, in the case of `CC1Nc2ccc(-c3cccc(F)c3)cc2C(C)(C)O1` (stereo not shown) [Example 27, 6-(3-Fluorophenyl)-2,4,4-trimethyl-1,4-dihydro-2H-3,1-benzoxazine] it was 139 to 140 °C; in that of `CC1Nc2ccc(-c3cccc(Cl)c3)cc2C(C)(C)O1` (stereo not shown) [Example 28, 6-(3-Chlorophenyl)-2,4,4-trimethyl-1,4-dihydro-2H-3,1-benzoxazine], 144 to 146 °C; in that of `CC1Nc2ccc(-c3ccc(F)c(Cl)c3)cc2C(C)(C)O1` (stereo not shown) [Example 29, 6(3-Chloro-4-fluorophenyl)-2,4,4-trimethyl-1,4dihydro-2H-3,1-benzoxazine], 173 to 175 °C.
Turning to `CC1Nc2ccc(-c3ccc(F)c(C#N)c3)cc2C(C)(C)O1` (stereo not shown) [Example 30, 2-Fluoro-5-(2,4,4-trimethyl-1,4-dihydro-2H-3,1-benzoxazin-6-yl)benzonitrile], the melting point was in the range of 184 to 186 °C.
Turning to `CC1Nc2ccc(-c3coc(C#N)c3)cc2C(C)(C)O1` (stereo not shown) [Example 31, 4-(2,4,4-Trimethyl-1,4-dihydro-2H-3,1-benzoxazin-6-yl)-2-furonitrile], the melting point was 116 to 118 °C.
Compound `CC1(C)OC(C(F)(F)F)Nc2ccc(-c3cc(F)cc(C#N)c3)cc21` (stereo not shown) [Example 32, 3-[4,4-Dimethyl-2-(trifluoromethyl)-1,4-dihydro-2H-3,1-benzoxazin-6-yl]-5-fluorobenzonitrile] displayed a melting point of 102 to 103 °C.
Regarding `Cc1cc(C#N)sc1-c1ccc2c(c1)C(C)(C)OC(C(F)(F)F)N2` (stereo not shown) [Example 38, 5-[4,4-Dimethyl-2-(trifluoromethyl)-1,4-dihydro-2H-3,1-benzoxazin-6yl]-4-methylthiophene-2-carbonitrile], the melting point is 97 to 98 °C.
In the case of `CC1(C)OC(C(F)(F)F)Nc2ccc(-c3cccc(Cl)c3)cc21` (stereo not shown) [Example 39, 6-(3-Chlorophenyl)-4,4-dimethyl-2-(trifluoromethyl)-1,4-dihydro-2H-3,1-benzoxazine], the melting point lay in the range of 108 to 109 °C.
Compound `CC1(C)CC(=O)Nc2ccc(-c3cccc(F)c3)cc21` [Example 40, 6(3-Fluorophenyl)-4,4-dimethyl-3,4-dihydroquinolin-2(1H)-one] showed a melting point of 190 to 192 °C.
Consider `CC1(C)CC(=O)Nc2ccc(-c3cc(F)cc(C#N)c3)cc21` [Example 41, 3-(4,4-Dimethyl-2-oxo-1,2,3,4-tetrahydroquinolin-6-yl)-5-fluorobenzonitrile], for which the melting point was in the range of 249 to 250 °C.
Turning to `CC1(C)CC(=O)Nc2ccc(-c3cccc(C#N)c3)cc21` [Example 42, 3-(4,4-Dimethyl-2-oxo-1,2,3,4-tetrahydroquinolin-6-yl)benzonitrile], the melting point lay in the range of 190 to 192 °C.
With `CC1(C)CC(=S)Nc2ccc(-c3cccc(F)c3)cc21` [Example 44, 6-(3-Fluorophenyl)-4,4-dimethyl-3,4-dihydroquinoline-2(1H)-thione], the melting point is 209 to 211 °C.
For the compound `CC1(C)CC(=S)Nc2ccc(-c3cc(F)cc(C#N)c3)cc21` [Example 46, 3-(4,4-Dimethyl-2-thioxo-1,2,3,4-tetrahydroquinolin-6-yl)5-fluorobenzonitrile], the melting point was 240 to 242 °C (dec.).
`CC1(C2CC2)NC(=O)Nc2ccc(-c3cccc(Cl)c3)cc21` (stereo not shown) [drawing 34, R = H, 6-(3-Chlorophenyl)-4-cyclopropyl-4-methyl-3,4-dihydro-1H-quinazolin-2-one] registered a melting point of 125 to 127 °C.
Compound `CN1C(=O)Nc2ccc(-c3cccc(Cl)c3)cc2C1(C)C1CC1` (stereo not shown) [drawing 34, R = Me, 6-(3-Chlorophenyl)-4-cyclopropyl-3,4-dimethyl3,4dihydro-1H-guinazolin-2-one] displayed a melting point of 193 to 194 °C.

The next data set concerns rat uterine decidualization. Description: Rat decidualization assay. Format: in vivo. As to conditions: average of dose-response curves, rat decidualization, s.c. How it is done: 1. Rat decidualization assay
b. Animals (RACUC protocol #5002)
The animals are treated once daily for seven days.
Uteri are removed and trimmed of fat.
Body weight: Mean total animal body weight (default-kg)
Decidual response: [(D-C)/C]×100%
Regarding `C#C[C@]1(O)CC[C@H]2[C@@H]3CCC4=CC(=O)CC[C@@H]4[C@H]3C(=C)C[C@@]21CC` [3-Ketodesogestrel, 3-ketodesogestrel], the “Estimated average EC50” value is recorded as 0.10 mg/kg, s.c.
Turning to `C#C[C@]1(O)CC[C@H]2[C@@H]3CCC4=CC(=O)CC[C@@H]4[C@H]3CC[C@@]21CC` [Levonorgestrel, levonorgestrel], the “Estimated average EC50” value is reported as 0.10 mg/kg, s.c.

The same data set, now with this note: decrease in EC50 progesterone (5.6 mg/kg) induced decidual response, rat, s.c.
Turning to `CC#C[C@]1(O)CC[C@H]2[C@@H]3CCC4=CC(=O)CCC4=C3[C@@H](c3ccc(N(C)C)cc3)C[C@@]21C` [RU486], the “Estimated IC50” value was 0.21 mg/kg, s.c. and 0.14 mg/kg, s.c.

The data set is the same for the next values; noted with them: ovariectomized female Sprague-Dawley rats, once daily for seven days, s.c.; individual studies.
For the compound `C#C[C@]1(O)CC[C@H]2[C@@H]3CCC4=CC(=O)CC[C@@H]4[C@H]3C(=C)C[C@@]21CC` [3-Ketodesogestrel, 3-ketodesogestrel], the “Estimated EC50 for uterine wet weight” value was 0.10 mg/kg, s.c. and 0.06 mg/kg, s.c. and 0.11 mg/kg, s.c.
On the same count and under the same terms, the same measure for `C#C[C@]1(O)CC[C@H]2[C@@H]3CCC4=CC(=O)CC[C@@H]4[C@H]3CC[C@@]21CC` [Levonorgestrel, levonorgestrel]: 0.08 mg/kg, s.c. and 0.12 mg/kg, s.c. and 0.09 mg/kg, s.c. (2×); for `CC(=O)O[C@]1(C(C)=O)CC[C@H]2[C@@H]3C[C@H](C)C4=CC(=O)CC[C@]4(C)[C@H]3CC[C@@]21C` [MPA, medroxyprogesterone acetate]: 0.42 mg/kg, s.c. and 0.39 mg/kg, s.c. (2×).
On to `CC(=O)[C@H]1CC[C@H]2[C@@H]3CCC4=CC(=O)CC[C@]4(C)[C@H]3CC[C@]12C` [Progesterone, progesterone], for which the “Estimated EC50 for uterine wet weight” value is given as 5.50 mg/kg, s.c.

Another data set relates to T47D cells. The experiment in a line: T47D cell proliferation assay (BrdU incorporation). Format: cell-based. The settings on record: half-maximal decrease in trimegestone induced BrdU incorporation, read-out: Estimated IC50. Here is the method:
3. T47D Cell Proliferation Assay
The objective of this assay is the determination of progestational and antiprogestational potency by using a cell proliferation assay in T47D cells. A compound's effect on DNA synthesis in T47D cells is measured.
DMEM:F12 (1:1) (GIBCO, BRL) supplemented with 10% (v/v) fetal bovine serum (not heat-inactivated), 10 U/ml penicillin, […] streptornycin, and 2 mM GlutaMax (GIBCO, BRL).
Minimum Essential Medium (MEM) (#51200-038GIBCO, BRL) phenol red-free supplemented with 0.5% charcoal stripped fetal bovine serum, 100 U/ml penicillin, […] streptornycin, and 2 mM GlutaMax (GIBCO, BRL).
Stock T47 D cells are maintained in growth medium. For BrdU incorporation assay, cells are plated in 96-well plates (Falcon, Becton Dickinson Labware) at 10,000 cells/well in growth medium. […]
At the end of BrdU labeling, the medium is removed and BrdU incorporation is measured using a cell proliferation ELISA kit (#RPN 250, Amersham Life Science) according to manufacturer's instructions. […] Then 25 μl of 1 M sulfuric acid is added to each well to stop color reaction and optical density is read in a plate reader at 450 nm within 5 min.
Square root-transformed data are used for analysis of variance and nonlinear dose response curve fitting for both agonist and antagonist modes. […] EC50 or IC50 values are calculated from the retransformed values. […]
With `CC#C[C@]1(O)CC[C@H]2[C@@H]3CCC4=CC(=O)CCC4=C3[C@@H](c3ccc(N(C)C)cc3)C[C@@]21C` [RU486], the half-maximal inhibitory concentration (IC50) (in general, the concentration that gives 50% inhibition) is 0.016 nM and 0.018 nM.

Staying with this data set, now noted: half-maximal increase in BrdU incorporation, individual studies, read-out: Estimated EC50.
Regarding `C[C@H](O)C(=O)[C@@]1(C)CC[C@H]2[C@@H]3CCC4=CC(=O)CCC4=C3CC[C@@]21C` [Trimegestone, trimegestone], the EC50 (commonly the concentration giving half of the maximal effect) is 0.017 nM and 0.014 nM and 0.019 nM.
